Marks after values point to notes of the source that are not given here.
Assays:
[1] = tested on: tuberculosis model; conditions: rabbit, in vivo; cited from earlier work
[2] = tested on: IPF patients; test: Phase II clinical trial in IPF patients: disposition / premature discontinuation; format: in vivo, human; conditions: 18 mg b.i.d.
Protocol: The participants were divided into 2 groups by chance (the “active agent group” and the “placebo group”). […] One 12 mg placebo tablet and one 6 mg placebo tablet (both containing no active ingredient, see Table 1) was administered orally to the patients of the second group twice daily (b.i.d.).
The “active agent group” and the “placebo group” were further distributed to two different groups regarding background medication: the “AF-group” (“antifibrotic background medication group”) and the “Non-AF-group” (“no antifibrotic background medication group”). […] The combination of both nintedanib and pirfenidone as background medication was not allowed in the “AF-group”.
The trial was a randomised, double-blind, placebo-controlled parallel group study.

[3] = tested on: IPF patients; conditions: male, human, in vivo, 13 weeks
[4] = target: PDE4 B subtype (Homo sapiens, UniProt Q07343); conditions: disclosed in WO 2013/026797; cited from earlier work
[5] = tested on: human lung fibroblasts; conditions: combination with nintedanib; WO2019/081235; cited from earlier work
[6] = tested on: IPF patients; test: Phase II clinical trial in IPF patients: Treatment Emergent Adverse Events
[7] = tested on: skin fibrosis; conditions: induced by bleomycin or topoisomerase I and chronic graft-versus-host disease; cited from earlier work
[8] = tested on: dextran sulfate sodium-induced colitis ulcerosa; conditions: mouse, in vivo; cited from earlier work
[9] = tested on: bleomycin mice; conditions: mouse, in vivo; cited from earlier work
[10] = tested on: human fetal lung fibroblasts (HFL-1); conditions: cited from earlier work
[11] = tested on: patients with IPF; conditions: IPF with mild or moderate impairment of FVC (≥50% predicted); cited from earlier work
[12] = tested on: patients with IPF; conditions: in vivo; cited from earlier work
[13] = tested on: normal human lung fibroblasts (NHLFs); conditions: in the presence of PGE2; cited from earlier work
[14] = tested on: normal human lung fibroblasts (NHLFs); conditions: cited from earlier work
[15] = tested on: human fetal lung fibroblast strain (GM06114); conditions: in the presence of PGE2; cited from earlier work
[16] = tested on: normal human lung fibroblasts (NHLFs); conditions: stimulated by bleomycin or 8-epi-PGF2α; cited from earlier work
[17] = tested on: bleomycin-induced fibrosis; conditions: cited from earlier work
[18] = tested on: bleomycin mice; conditions: mouse, in vivo; cited from earlier work; remark: listed apart in the source
[19] = tested on: type II alveolar epithelial cells; conditions: cited from earlier work
[20] = tested on: chronic graft-versus-host disease; conditions: cited from earlier work
[21] = tested on: diethylnitrosamine-induced liver fibrosis; conditions: rat, in vivo; cited from earlier work
[22] = tested on: normal human lung fibroblasts (NHLFs); conditions: in the presence of indacaterol; cited from earlier work
[23] = tested on: human lung fibroblast model (WI-38); conditions: in the presence of forskolin; cited from earlier work
[24] = tested on: bleomycin-induced fibrosis; conditions: administered from the beginning of bleomycin challenge; cited from earlier work
[25] = tested on: renal interstitial fibrosis; conditions: mouse, in vivo; cited from earlier work
[26] = tested on: mouse primary tubular epithelial cells; conditions: cited from earlier work
[27] = tested on: bile duct ligation-induced hepatic fibrosis; conditions: rat, in vivo; cited from earlier work
[28] = tested on: hepatic stellate cells; conditions: cited from earlier work
[29] = tested on: trinitrobenzene sulfonic acid-induced colitis; conditions: rat, in vivo; cited from earlier work
[30] = tested on: cecal abrasion model; conditions: mouse, in vivo; cited from earlier work
[31] = tested on: sponge implant model; conditions: subcutaneous or intraperitoneal implant; cited from earlier work
[32] = tested on: A549 human alveolar epithelial cell line; conditions: TGF-β1-stimulated; cited from earlier work
[33] = AF-group nintedanib background, 18 mg b.i.d.
[34] = AF-group pirfenidone background, 18 mg b.i.d.
[35] = Total (Non-AF + AF), 18 mg b.i.d.

PDE4 B subtype, sequence (Q07343 whole entry): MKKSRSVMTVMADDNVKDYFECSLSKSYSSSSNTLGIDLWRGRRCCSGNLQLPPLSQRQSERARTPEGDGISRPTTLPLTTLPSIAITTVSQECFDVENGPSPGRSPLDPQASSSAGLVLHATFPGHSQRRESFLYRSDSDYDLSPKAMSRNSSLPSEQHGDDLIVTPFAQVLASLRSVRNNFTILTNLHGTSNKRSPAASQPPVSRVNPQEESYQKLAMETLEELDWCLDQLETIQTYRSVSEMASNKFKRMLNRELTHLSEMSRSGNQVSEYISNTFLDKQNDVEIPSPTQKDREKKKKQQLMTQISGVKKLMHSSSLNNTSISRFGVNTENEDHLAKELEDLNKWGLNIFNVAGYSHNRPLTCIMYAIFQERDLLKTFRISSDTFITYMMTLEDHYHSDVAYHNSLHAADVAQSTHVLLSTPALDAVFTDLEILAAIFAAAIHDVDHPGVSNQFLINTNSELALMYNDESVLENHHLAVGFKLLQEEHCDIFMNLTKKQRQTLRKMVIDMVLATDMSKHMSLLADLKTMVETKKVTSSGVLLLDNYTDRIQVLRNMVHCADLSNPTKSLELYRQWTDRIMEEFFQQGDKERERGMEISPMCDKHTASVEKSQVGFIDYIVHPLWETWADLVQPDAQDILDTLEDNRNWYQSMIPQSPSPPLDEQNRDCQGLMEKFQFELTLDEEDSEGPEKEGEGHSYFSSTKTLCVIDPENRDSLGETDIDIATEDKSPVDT

**Q.** For `CCOc1cc([C@@H](CS(C)(=O)=O)N2Cc3cccc(NC(=O)C4CC4)c3C2=O)ccc1OC` [CC-11050], which “Pulmonary damage and fibrosis” value [1] is on record?
**A.** inhibited

**Q.** For `[O-][S@+]1CCc2nc(N3CCC(c4ncc(Cl)cn4)CC3)nc(NC3(CO)CCC3)c21` [Comp. of Form. III], which “Not completed observation period: Death, %” value ([2]; AF-group) is on record?
**A.** 2.0%

**Q.** What about the “Not completed planned treatment period (prematurely discontinued trial medication), %” value ([2]; AF-group) of the same molecule?
**A.** 20.4%

**Q.** And the “Not completed treatment period: Adverse Event, %” value ([2]; AF-group)?
**A.** 20.4%

**Q.** What about the “Not completed observation period: Death, %” value ([2]; Non-AF-group) of the same molecule?
**A.** 2.1%

**Q.** And the “Not completed planned treatment period (prematurely discontinued trial medication), %” value ([2]; Non-AF-group)?
**A.** 10.4%

**Q.** What about the “Not completed treatment period: Adverse Event, %” value ([2]; Non-AF-group) of the same molecule?
**A.** 6.3%

**Q.** And the “Moderate cases of diarrhoea” value [3]?
**A.** 2.1%

**Q.** What about the “Severe case of diarrhoea” value [3] of the same molecule?
**A.** 1.0%

**Q.** What about the PDE4 subtype preference [4] of the same molecule?
**A.** inhibit preferentially the PDE4 B subtype

**Q.** And the “Effect on fibroblast proliferation” value [5]?
**A.** synergistic overadditive effect

**Q.** And the “AE: Infections and infestations” value [6, 33]?
**A.** 6 (23.1) n (%)

**Q.** What about the “Serious AEs: Results in Death, %” value [6, 33] of the same molecule?
**A.** 0%

**Q.** And the “AE: Infections and infestations” value [6, 34]?
**A.** 1 (4.3) n (%)

**Q.** What about the “Serious AEs: Results in Death, %” value [6, 34] of the same molecule?
**A.** 4.3%

**Q.** And the “AE: Infections and infestations” value ([6]; AF-group, 18 mg b.i.d.)?
**A.** 7 (14.3) n (%)

**Q.** What about the “Patients with AE resulting in death” value ([6]; AF-group, 18 mg b.i.d.) of the same molecule?
**A.** 1 (2.0) n (%)

**Q.** What about the “SAE: General disorders and administration side conditions, fatal events” value ([6]; AF-group, 18 mg b.i.d., bracketed value marked * (fatal events)) of the same molecule?
**A.** [1 (2.1)]* n (%)

**Q.** And the “SAE: Vasculitis” value ([6]; AF-group, 18 mg b.i.d., fatal event)?
**A.** 1 (2.0)* n (%)

**Q.** What about the “AE: Infections and infestations” value ([6]; Non-AF-group, 18 mg b.i.d.) of the same molecule?
**A.** 7 (14.6) n (%)

**Q.** What about the “Patients with AE resulting in death” value ([6]; Non-AF-group, 18 mg b.i.d.) of the same molecule?
**A.** 1 (2.1) n (%)

**Q.** And the “SAE: Infections and Infestations” value ([6]; Non-AF-group, 18 mg b.i.d.)?
**A.** 1 (2.1) n (%)

**Q.** What about the “SAE: Covid-19 pneumonia” value ([6]; Non-AF-group, 18 mg b.i.d., fatal event) of the same molecule?
**A.** 1 (2.1)* n (%)

**Q.** What about the “AE: Infections and infestations” value [6, 35] of the same molecule?
**A.** 14 (14.4) n (%)

**Q.** What about the “Patients with AE resulting in death” value [6, 35] of the same molecule?
**A.** 2 (2.1) n (%)

**Q.** And the “SAE: Covid-19 pneumonia” value [6, 35]?
**A.** 1 (1.0) n (%)

**Q.** What about the “SAE: Infections and Infestations” value [6, 35] of the same molecule?
**A.** 1 (1.0) n (%)

**Q.** What about the “Patients who experienced an AE resulting in death” value ([6]; active agent group, all, one Covid-19 pneumonitis, one unconfirmed vasculitis) of the same molecule?
**A.** 2 patients

**Q.** What does the source list for `CCOc1cc([C@@H](CS(C)(=O)=O)N2C(=O)c3cccc(NC(C)=O)c3C2=O)ccc1OC` [apremilast]?
**A.** Skin fibrosis [7]: inhibited; Fibrosis in colon, collagen deposition, fibrosis-related gene expression [8]: inhibited fibrosis in colon, collagen deposition, and the expression of genes related to fibrosis

**Q.** What does the source list for `COc1ccc([C@]2(C#N)CC[C@@H](C(=O)O)CC2)cc1OC1CCCC1` [cilomilast]?
**A.** Late-stage lung fibrosis and collagen content [9]: inhibit late-stage lung fibrosis and tended to reduce collagen content; TGF-β1 and collagen type (Col) 1A1 expression [9]: no effect; FN-induced chemotaxis and contraction of collagen gels [10]: inhibited FN-induced chemotaxis and contraction of collagen gels

**Q.** Which “Effect on FVC decline” value [11] does the source give for `COC(=O)c1ccc2c(c1)NC(=O)/C2=C(\Nc1ccc(N(C)C(=O)CN2CCN(C)CC2)cc1)c1ccccc1` [nintedanib] here?
**A.** can only reduce the decline in FVC

**Q.** And the “Most prominent side effects” value [12]?
**A.** gastrointestinal events, particularly diarrhea, nausea, vomiting, abdominal pain, decreased appetite and a decreased body weight

**Q.** Which results are given for `COc1ccc(C(=O)Nc2c(Cl)cncc2Cl)cc1OC1CCCC1` [piclamilast]?
**A.** TGF-β-induced fibroblast-to-myofibroblast conversion (α-SMA expression) [13]: inhibited; IL-1β plus bFGF-stimulated fibroblast proliferation [14]: inhibition of IL-1β plus bFGF-stimulated fibroblast proliferation

**Q.** For `Cc1ccc(=O)n(-c2ccccc2)c1` [pirfenidone], which “Effect on FVC decline” value [11] is on record?
**A.** can only reduce the decline in FVC

**Q.** What about the “Most prominent side effects” value [12] of the same molecule?
**A.** gastrointestinal events, particularly diarrhea, nausea, vomiting, abdominal pain, decreased appetite and a decreased body weight

**Q.** For `O=C(Nc1c(Cl)c[n+]([O-])cc1Cl)c1ccc(OC(F)F)c(OCC2CC2)c1` [roflumilast N-oxide], which “ICAM-1 and eotaxin release, proliferation, α-SMA, CTGF, FN mRNA” value [15] is on record?
**A.** inhibit intercellular adhesion molecule-1 and cotaxin release stimulated by TNF-α

**Q.** And the “NHLF responses (collagen synthesis, proliferation, ROS and F2-isoprostane formation, NADPH oxidase 4 expression)” value [16]?
**A.** inhibited

**Q.** Which results are given for `O=C(Nc1c(Cl)cncc1Cl)c1ccc(OC(F)F)c(OCC2CC2)c1` [roflumilast]?
**A.** Right ventricular hypertrophy and vascular remodeling (pulmonary arteries) ([17]; in vivo): positively influenced; Fibrosis, hydroxyproline content and mRNA expression in lung extracts ([17]; lung extracts): inhibited histologically assessed fibrosis, hydroxyproline content; Activity in preventive and therapeutic protocols ([17]; oral): active both in preventive and in therapeutic protocols in a dose-dependent manner; Levels of the amino acids glycine and proline [18]: lowered; Lung glutathione and plasma tetrahydrobiopterin [18]: increased; Lung hydroxyproline content and mRNA expression of TNF-α, FN, CTGF ([19]; mouse, in vivo): lowered lung hydroxyproline content and mRNA expression of TNF-α, fibronectin (FN), and CTGF; Potency relative to pirfenidone and nintedanib ([19]; therapeutic regimen): therapeutically equipotent to pirfenidone and nintedanib; Fibrosis, collagen deposition, hydroxyproline, TGF-β1, cell infiltration, IL-6 and IL-1β mRNA ([20]; mouse, in vivo): inhibited fibrosis, collagen deposition, hydroxyproline and TGF-β1 content, cell infiltration, and expression of mRNA for IL-6 and IL-1β; Lung fibrosis ([20]; oral): attenuated; Liver fibrosis, hydroxyproline deposition, TGF-β1 expression [21]: inhibited diethylnitrosamine-induced liver fibrosis, hydroxyproline deposition, and TGF-β1 expression; TGF-β1-induced CTGF mRNA, α-SMA protein expression and FN [22]: inhibition; TGF-β-induced mRNA expression of collagen α1, CTGF, and FN [23]: inhibited

**Q.** With `COc1ccc(C2CNC(=O)C2)cc1OC1CCCC1` (stereo not shown) [rolipram] as the molecule, how does the “Fibrotic score, hydroxyproline content, serum TNF-α” value [24] read?
**A.** inhibit fibrotic score, hydroxyproline content, and serum tumor necrosis factor-α (TNF-α)

**Q.** And the Skin fibrosis [7]?
**A.** inhibited

**Q.** What about the Renal interstitial fibrosis [25] of the same molecule?
**A.** inhibit renal interstitial fibrosis

**Q.** What about the “TGF-β-induced damage, FN expression, deficiency of mitochondrial biogenesis” value [26] of the same molecule?
**A.** inhibited TGF-β-induced damage, FN expression, and deficiency of mitochondrial biogenesis

**Q.** And the “Collagen deposition, α-SMA staining and mRNA expression” value [27]?
**A.** inhibited collagen deposition, α-smooth muscle actin (α-SMA) staining, and mRNA expression

**Q.** What about the “mRNA expression of α-SMA and Col1A2” value [28] of the same molecule?
**A.** inhibited mRNA expression of α-SMA and Col1A2

**Q.** And the “Collagen and TGF-β1 in colonic tissue” value [29]?
**A.** inhibited collagen and TGF-β1

**Q.** And the Fibrotic reactions [30]?
**A.** inhibited fibrotic reactions

**Q.** What about the “Intra-implant collagen and TGF-β1 deposition” value [31] of the same molecule?
**A.** inhibiting intra-implant collagen and TGF-β1 deposition

**Q.** And the “FN-induced chemotaxis and contraction of collagen gels” value [10]?
**A.** inhibited FN-induced chemotaxis and contraction of collagen gels

**Q.** What about the Epithelial-mesenchymal transition changes [32] of the same molecule?
**A.** inhibited epithelial-mesenchymal transition changes like FN and collagen mRNA expression, although not α-SMA mRNA
